Reference: US20220120736A1, “METHODS AND ASSAYS FOR MODULATING GENE TRANSCRIPTION BY MODULATING CONDENSATES” (Whitehead Institute for Biomedical Research, priority 2018, published 2022)

Legend:
[1] = test system: mutant (Y537S) and mutant (D538G) ER activation domain; assay: Lac array assay in U2OS cells, mutant ER fusions; assay type: cell-based; settings: Y537S and D538G mutants, presence versus absence of estrogen
From the text: A Lac binding domain-CFP-ER activation domain (ER) fusion protein, Lac binding domain-CFP-mutant (Y537S) ER activation domain fusion protein, or Lac binding domain-CFP-ER mutant (D538G) activation domain fusion protein was introduced into U2OS cells bearing the Lac operon array. […] Same experimental conditions as FIG. 39.
Constructs were assembled by NEB HIFI cloning in pSV2 mammalian expression vector containing an SV40 promoter driving expression of a CFP-LacI fusion protein. The activation domains and mutant activation domains of […] were fused by the c-terminus to this recombinant protein, joined by the linker sequence […] (SEQ ID NO: 17). U2OS-268 cells containing a stably integrated array of ˜51,000 Lac-repressor binding sites (a gift of the Spector laboratory) were transfected using lipofectamine 3000 (Thermofisher L3000015). 24 hours after transfection, cells were plated on fibronectin-coated glass coverslips. After 24 hours on glass coverslips, cells were fixed for immunofluorescence with a MED1 antibody (Table S4) as described above and imaged, by spinning disk confocal microscopy.

[2] = test system: MED1 signal at the MYC locus in MCF7 cells; assay: Immunofluorescence for MED1 with DNA FISH at the MYC locus; assay type: cell-based, human; settings: MCF7 cells estrogen-deprived 3 days; 10 uM estradiol, or 10 uM estradiol and 5 uM 4-hydroxytamoxifen, 45 minutes
Protocol: Human tumor tissues sliced at 10 μm thickness or cells grown on Poly-L-Ornithine coated glass were washed once with PBS and fixed in 4% Paraformaldehyde, PFA, (VWR, BT140770) for 10 minutes. After three washes in PBS for 5 min, cells were stored at 4° C. or transferred to a humidifying chamber and processed for immunofluorescence. Permeabilization of cells was performed using 0.5% triton X100 (Sigma Aldrich, X100) in PBS for 10 minutes followed by three PBS washes. Cells were blocked with 4% IgG-free Bovine Serum Albumin, BSA, (VWR, 102643-516) for 30 minutes and the indicated primary antibody (ER ab32063, MED1 ab64965) was added at a concentration of 1:500 in 4% IgG-free Bovine Serum Albumin for 4-16 hours. […]
For analysis of RNA/DNA FISH with immunofluorescence, custom Python scripts were written to process and analyze 3D image data gathered in FISH and IF channels. […] These FISH foci were filtered by various criteria, including size (minimum 100 voxels), circularity of a max z-projection (circularity=4pi*area/perimeter^2; 0.7), and being present in a nucleus (determined by nuclear mask described above). […] The IF signal centered at FISH foci for each FISH and IF pair are then combined and an average intensity projection is calculated, providing averaged data for IF signal intensity within a l×l square centered at FISH foci. […]

MYC oncogene = assay: Confocal microscopy of MED1 condensates at MYC; assay type: cell-based; settings: presence versus absence of estrogen
[3] = test system: ER LBD (GAL4 DNA-binding domain fusion) in HEK293T cells; assay: GAL4 transactivation assay; assay type: cell-based; settings: elevated MED1 levels; 10 nM Tamoxifen, 24 hours
From the text: (SEQ ID NO: 14). […] For high MED1 conditions, a construct with a mammalian expression vector containing a PGK promoter driving the expression of MED1 fused to GFP was co-transfected.

Row | SMILES | condensate formation, CFP signal of fusion protein [1] | condensate formation, mediator immunofluorescence [1] | MED1 signal at MYC [2] | MED1 condensate formation at the MYC oncogene (MYC oncogene) | GAL4 transactivation with tamoxifen-bound ER [3]
1 | C[C@]12CC[C@@H]3c4ccc(O)cc4CC[C@H]3[C@@H]1CC[C@@H]2O [estrogen, B-Estradiol] | did not significantly affect condensate formation | did not significantly affect condensate formation | enhanced | stimulates MED1 condensate formation at the MYC oncogene | 
2 | CC/C(=C(\c1ccccc1)c1ccc(OCCN(C)C)cc1)c1ccccc1 [tamoxifen] |  |  | reduced |  | showed activation
